Experimental data published in patent US5439944A, “Red blood cell substitute emulsions containing alkyl- or alkylglyucerophosphoryl choline surfactants and methods of use” (priority 1993, dated 1995).

How the values were obtained:
[1] = tested on: rat whole blood; experiment: Hemolysis screening of surfactants; format: cell-based; conditions: 5% surfactant in 0.9% saline admixed 1:1 with rat whole blood; visually distinct red hue of supernate
Procedure: Surfactant Examples 1a-1k according to general Structure I above, and 2a of Structure II above, were prepared following the above procedures.
(§1) Surfactants were screened initially by preparing 5% solutions/dispersions of the surfactant in 0.9% saline and admixing 1:1 with rat whole blood. Centrifugation (6 minutes) at 2400 rpm afforded packed cells and a supernate. […] The discoloration of the supernate was not quantified colorimetrically.

[2] = tested on: Sprague Dawley rats; experiment: Preliminary acute toxicity screen; format: in vivo; conditions: 5% sonicated dispersion in 0.9% saline, two Sprague Dawley rats, 14 days
[3] = Organ distribution 14 days after infusion (Table V); format: in vivo, rats; conditions: for Kidney / Liver / Lung / Spleen / Survival / Hct: 14 days after infusion of 40 cc/Kg; for Hct: hematocrit
Procedure: The impact of the emulsions of Table IV on organ distribution of PFC was then determined by sacrificing the test animals 14 days after infusion.

[4] = Emulsion mean particle size and stability after 4 days in serum albumin/Lactated Ringer's at 37° C.; format: physicochemical
Description: The surfactants of Table I were used to make 40 volume % (v/v) perfluorochemical emulsions. In the above described European Pat. Appln. […] Therefore, those perfluorochemical emulsions were used as a control for comparison with the perfluorochemical emulsions of this invention.
For comparison with the data of Table II, the study was repeated with a constant loading of 2 w/v % surfactant, and 2 w/v % safflower oil adjuvant for the control and surfactants of this invention.

[5] = Perfluorochemical circulatory blood residence time (fluorocrit); format: in vivo, rats; conditions: perfluorochemical remaining at 48 hours
Procedure: The emulsions of Tables II and III were studied in a randomized, ten animal per emulsion experiment in which each animal was infused with 20 cc/Kg of emulsion and sacrificed at 48 hours to determine the circulatory perfluorochemical or perfluorocarbon content called "fluorocrit" and abbreviated "Fct". The Fct represents that percentage of the blood that is perfluorocarbon in v/v %.
After 48 hrs., the animals were anesthetized, the chest cavity was opened, and a blood sample (1-2ml) was withdrawn from the still beating heart. Three to 4 drops of the sample were added to each of three previously tared 4 ml vials containing 10%KOH/EtOH (1.0 ml). The vials were weighed to determine the amount of blood added, then reweighed after an internal standard mixture of 1% octane in CFCl3 (1.5-2.0ml) was added. H2 O was added to the vial until full, then the vial was placed on a rotary shaker at 240 rpm for 20 minutes. The lower layer was withdrawn, and passed through a glass wool plugged pasteur pipette containing silica gel (0.3-0.4g). […] The program parameters specified a hold period at 40° C. for 4 minutes, followed by a 10° C./minute temperature rise until 140° was attained.

[6] = Solubility/dispersion of surfactant in 0.9% saline; format: physicochemical; conditions: 5% solution/dispersion in 0.9% saline
Procedure: as §1

[7] = Organ distribution, additional separate study (Table VI); format: in vivo, rats
[8] = Organ distribution, additional separate study (Table VII); format: in vivo, rats
[9] = Blood hematology; format: in vivo, rats; conditions: Table VIII, accredited outside laboratories
Description: The effects on the liver and lung were not as pronounced in Table VI as in Table V. However, with respect to Table VII, it is believed that the smaller values obtained for the liver and spleen are also real.

[10] = K. Yokoyama et al; cited from earlier work

Row | SMILES | Hemolytic [1] | Survival at 40 cc/Kg of 5% solution [2] | Kidney [3] [g/100 g] | Liver [3] [g/100 g] | Lung [3] [g/100 g] | Spleen [3] [g/100 g] | Survival [3] | Hct [3] [v/v %] | other results
1 | CCCCCCCCCCCCCCCCCCOC(COCCCCCCCCCCCCCCCC)COP(=O)([O-])OCC[N+](C)(C)C (stereo not shown) [Cpd 1h, 1-hexadecyl-2-octadecylglycero-3-phosphoryl choline] | No | 0/2 |  |  |  |  |  |  | 
2 | CCCCCCCCOCC(COP(=O)([O-])OCC[N+](C)(C)C)OCCCCCCCC (stereo not shown) [Cpd 1a, 1,2-dioctylglycero-3-phosphoryl choline] | hemolytic and Yes |  |  |  |  |  |  |  | 
3 | CCCCCCCCCCCCCCOCC(COP(=O)([O-])OCC[N+](C)(C)C)OCCCCCCCCCCCCCC (stereo not shown) [Cpd 1b, 1,2-ditetradecylglycero-3-phosphoryl choline] | hemolytic and Yes |  |  |  |  |  |  |  | 
4 | CCCCCCCCCCCCCCCCOCC(COP(=O)([O-])OCC[N+](C)(C)C)OCCCCCCCCCCCCCC (stereo not shown) [Cpd 1e, 1-hexadecyl-2-tetradecylglycero-3-phosphoryl choline] | No | 0/2 | 1.06 | 7.97 | 0.57 | 1.55 | 9/10 | 35.8 | 
5 | CCCCCCCC/C=C\CCCCCCCCOCC(COP(=O)([O-])OCC[N+](C)(C)C)OCCCCCCCC/C=C\CCCCCCCC (stereo not shown) [Cpd 1i, 1,2-Dioleylglycerophosphoryl choline] | No | 2/2 | 0.96 | 7.47 | 0.64 | 2.56 | 8/10 | 34.7 | Mean Particle Size ([4]; Table II, 1.8 w/v % Cpd., 2.0 w/v % oil, 40 v/v % PFC emulsion, sterilized 15 min 121° C.): 304 nM; 4 days Serum ([4]; Table II, 1.8 w/v % Cpd., 2.0 w/v % oil, particle size after 4 days at 37° C. in serum albumin/Lactated Ringer's): 258 nM; Mean Particle Size ([4]; Table III, 2 w/v % surfactant, 2 w/v % safflower oil): 323 nM; 4 days Serum ([4]; Table III, 2 w/v % surfactant, 2 w/v % safflower oil, 4 days at 37° C. in serum albumin/Lactated Ringer's): 301 nM
6 | CCCCCCCCCCCCCCCCOC(COCCCCCCCCCCCCCC)COP(=O)([O-])OCC[N+](C)(C)C (stereo not shown) [Cpd 1k, 1-tetradecyl-2-hexadecylglycero-3-phosphoryl choline] |  |  | 1.22 | 7.76 | 0.64 | 2.09 | 9/10 | 36.5 | 
7 | CCCCCCCCCCCCCCCCCCOCC(COP(=O)([O-])OCC[N+](C)(C)C)OCCCCCCCCCCCCCC (stereo not shown) [Cpd 1f, 1-octadecyl-2-tetradecylglycero-3-phosphoryl choline] | No | 2/2 |  |  |  |  |  |  | circulatory blood residence / stability in the circulatory blood system (in words) [5]: increased stabilities in the circulatory blood system
8 | CCCCCCCCCCCCCCCCCCOCC(COP(=O)([O-])OCC[N+](C)(C)C)OCCCCCCCCCCCCCCCCCC (stereo not shown) [Cpd 1d, 1,2-di-octadecylglycero-3-phosphoryl choline] | No |  |  |  |  |  |  |  | Solubility (entry in survival column) [6]: insoluble cpd
9 | CCCCCCCCCCCCCCCCCCOC(COCCCCCCCCCCCCCC)COP(=O)([O-])OCC[N+](C)(C)C (stereo not shown) [Cpd 1g, 1-tetradecyl-2-octadecylglycero-3-phosphoryl choline] | No | 0/2 | 0.94 | 7.52 | 0.55 | 1.49 | 6/10 | 39.0 | 
10 | CCCCCCCCCCCCCCCCOCC(COP(=O)([O-])OCC[N+](C)(C)C)OCCCCCCCCCCCCCCCC (stereo not shown) [Cpd 1c, 1,2-dihexadecylglycero-3-phosphoryl choline] | No | 2/2 |  |  |  |  |  |  | 
11 | CCCCCCCCCCCCCCCCCCOCC(COP(=O)([O-])OCC[N+](C)(C)C)OCCCCCCCCCCCCCCCC (stereo not shown) [Cpd 1j, 1-octadecyl-2-hexadecylglycero-3-phosphoryl choline] |  |  | 0.89 | 6.64 | 0.57 | 1.66 | 9/10 | 44.4 | circulatory blood residence / stability in the circulatory blood system (in words) [5]: increased stabilities in the circulatory blood system; Kidney [7]: 0.97 g/100 g; Liver [7]: 7.44 g/100 g; Lung [7]: 0.98 g/100 g; Spleen [7]: 1.70 g/100 g; Survival [7]: 10/10; Hct ([7]; hematocrit): 36.1 v/v %; Kidney [8]: 0.901 g/100 g; Liver [8]: 7.39 g/100 g; Lung [8]: 0.828 g/100 g; Spleen [8]: 1.46 g/100 g; Survival [8]: 10/10; Hct ([8]; hematocrit): 37.7 v/v %; drop in hematocrit after infusion (in words) ([3]; vs control): so striking; Platelets [9]: 1024222; RBC [9]: 5.42; Reticulocytes [9]: 313281; Hemoglobin ([9]; in g/dL (unit assumed)): 11.04
12 | FC(F)(F)C(F)(F)C(F)(F)N(C(F)(F)C(F)(F)C(F)(F)F)C(F)(F)C(F)(F)C(F)(F)F [perfluorotripropylamine] |  |  |  |  |  |  |  |  | half life in the liver and other body tissues (in words) [10]: longer than desirable
